Bridge positions count the residues as written; N and C are the ends. Square brackets hold non-standard residues; d marks the D form. Peptide text beside a SMILES is read from it. * marks the point of attachment. ξ: configuration not given here. Bip(3'-COOH) = N[C@@H](Cc1ccc(-c2cccc(C(=O)O)c2)cc1)C(=O)O; Phe(4-COOH) = N[C@@H](Cc1ccc(C(=O)O)cc1)C(=O)O; Bip = N[C@@H](Cc1ccc(-c2ccccc2)cc1)C(=O)O; Phe(3-OMe) = COc1cccc(C[C@H](N)C(=O)O)c1; Phe(3-Me) = Cc1cccc(C[C@H](N)C(=O)O)c1; Val(3-OH) = CC(C)(O)[C@H](N)C(=O)O; 3Pal = N[C@@H](Cc1cccnc1)C(=O)O; 4Pal = N[C@@H](Cc1ccncc1)C(=O)O; 2Thi = N[C@@H](Cc1cccs1)C(=O)O; Cha = N[C@@H](CC1CCCCC1)C(=O)O; Cit = NC(=O)NCCC[C@H](N)C(=O)O; Ile(3ξ) = CCC(C)[C@H](N)C(=O)O; Thr(3ξ) = CC(O)[C@H](N)C(=O)O; ξCha = NC(CC1CCCCC1)C(=O)O; Carboxymethyl = O=C(O)C*; NMeA = CN[C@@H](C)C(=O)O; Nle = CCCC[C@H](N)C(=O)O; Dab = NCC[C@H](N)C(=O)O; Dap = NC[C@H](N)C(=O)O; Piv = CC(C)(C)C(=O)*; ξC = NC(CS)C(=O)O; Acm = CC(=O)NC*

The first experiment deals with T1, PE-labeled human PD-L1-Ig binding to Jurkat cell line over-expressing human PD-1 (Jurkat-PD-1) (Homo sapiens, UniProt Q15116).
T1 construct: expressed in transfected cells; host or cells: Jurkat
T1 sequence (Q15116 25-288): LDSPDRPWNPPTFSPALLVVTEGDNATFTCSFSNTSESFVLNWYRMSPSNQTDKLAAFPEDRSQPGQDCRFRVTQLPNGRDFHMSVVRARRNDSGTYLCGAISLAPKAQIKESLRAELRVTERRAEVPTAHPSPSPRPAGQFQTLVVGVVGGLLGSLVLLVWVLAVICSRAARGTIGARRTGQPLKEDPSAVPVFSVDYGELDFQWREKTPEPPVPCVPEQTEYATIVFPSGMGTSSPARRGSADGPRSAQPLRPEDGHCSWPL
In words: Jurkat-PD-1 Cell Binding High-Content Screening Assay (CBA): Method 1. The conditions noted are these: Jurkat HPDL1 PD1 IC50 (uM) (Method 1), Jurkat-hPD-1 cells, PE-labeled PD-L1-Ig 20 nM final.
A word on the IC50: it is the midpoint of a concentration-inhibition curve. On to `Cc1cccc(C[C@@H]2NC(=O)[C@H](CC(=O)O)NC(=O)[C@H](Cc3ccccc3)NC(=O)[C@H](CN)NC(=O)CSC[C@@H](C(=O)N[C@@H](C)C(N)=O)NC(=O)[C@H](CO)NC(=O)[C@H](Cc3ccccc3)NC(=O)[C@H](CC(C)C)NC(=O)[C@H](CC(N)=O)NC(=O)[C@@H](CC(C)C)NC(=O)[C@H](C)N(C)C(=O)[C@H](Cc3ccccc3)NC(=O)[C@H](Cc3ccc(-c4ccccc4)cc3)NC(=O)[C@H](CC(C)C)NC2=O)c1` [Compound 1594] ({CH2CO}-[Dap]FD[Phe(3-Me)]L[Bip]F[NMeA][dL]NLFSCA-NH2; thioether N-14), for which the IC50 stood at 0.01 µM.

Still in this experiment, the particulars now being: Jurkat-hPD-1 cells, PE-labeled PD-L1-Ig 20 nM final; read-out: Jurkat HPDL1 PD1 IC50 (uM) (Method 1).
For the compound `Cc1cccc(C[C@@H]2NC(=O)[C@H](CC(=O)O)NC(=O)[C@H](Cc3ccc(OCC(=O)O)cc3)NC(=O)[C@H](Cc3cccs3)NC(=O)CSC[C@@H](C(=O)N[C@@H](CCNC(=O)C(C)(C)C)C(N)=O)NC(=O)[C@H](Cc3cnc[nH]3)NC(=O)[C@H](C(C)(C)O)NC(=O)[C@H](CC3CCCCC3)NC(=O)[C@H](CCN)NC(=O)[C@@H](CC(C)C)NC(=O)[C@H](C)N(C)C(=O)[C@H](Cc3ccc(OCC(=O)O)cc3)NC(=O)[C@H](Cc3ccc(-c4ccccc4)cc3)NC(=O)[C@H](Cc3ccc(C(=O)O)cc3)NC2=O)c1` [Compound 2166] ({CH2CO}-[2Thi]Y(Carboxymethyl)D[Phe(3-Me)][Phe(4-COOH)][Bip]Y(Carboxymethyl)[NMeA][dL][Dab][Cha][Val(3-OH)]HC[Dab](Piv)-NH2; thioether N-14), the IC50 was found to be 0.02 µM.
Regarding `COc1cccc(C[C@@H]2NC(=O)[C@H](Cc3cccnc3)NC(=O)CSCC(C(=O)N[C@@H](CN)C(=O)O)NC(=O)[C@H](CO)NC(=O)[C@H](C(C)C)NC(=O)[C@H](CC(C)C)NC(=O)[C@H](CC(N)=O)NC(=O)[C@@H](CC(C)C)NC(=O)[C@H](C)N(C)C(=O)[C@H](C(C)C)NC(=O)[C@H](Cc3ccc(-c4ccccc4)cc3)NC(=O)[C@H](C(C)C)NC(=O)[C@H](Cc3c[nH]c4ccccc34)NC(=O)[C@H](CC(=O)O)NC2=O)c1` (stereo partly drawn) [Compound 2211] ({CH2CO}-[3Pal][Phe(3-OMe)]DWV[Bip]V[NMeA][dL]NLVS[ξC][Dap]-OH; thioether N-14), the IC50 was 0.08 µM.
The same measure, in the same setting: under `Cc1cccc(C[C@@H]2NC(=O)[C@H](CC(=O)O)NC(=O)[C@H](Cc3ccc(OCC(=O)O)cc3)NC(=O)[C@H](CN)NC(=O)CSC[C@@H](C(N)=O)NC(=O)[C@H](CCC(N)=O)NC(=O)[C@H](C(C)C)NC(=O)[C@H](CC3CCCCC3)NC(=O)[C@H](CCN)NC(=O)[C@@H](CC(C)C)NC(=O)[C@H](C)N(C)C(=O)[C@H](Cc3ccc(OCC(=O)O)cc3)NC(=O)[C@H](Cc3ccc(-c4ccccc4)cc3)NC(=O)[C@H](Cc3ccc(OCC(=O)O)cc3)NC2=O)c1` [Compound 1649] ({CH2CO}-[Dap]Y(Carboxymethyl)D[Phe(3-Me)]Y(Carboxymethyl)[Bip]Y(Carboxymethyl)[NMeA][dL][Dab][Cha]VQC-NH2; thioether N-14) stands 0.1 µM; under `Cc1cccc(C[C@@H]2NC(=O)[C@H](CC(=O)O)NC(=O)[C@H](Cc3ccc(C(=O)O)cc3)NC(=O)[C@H](Cc3ccc(OCC(=O)O)cc3)NC(=O)CSC[C@@H](C(N)=O)NC(=O)[C@H]([C@@H](C)O)NC(=O)[C@H](C(C)C)NC(=O)[C@H](CC3CCCCC3)NC(=O)[C@H](CC(N)=O)NC(=O)[C@@H](CC(C)C)NC(=O)[C@H](C)N(C)C(=O)[C@H](C(C)C)NC(=O)[C@H](Cc3ccc(-c4ccccc4)cc3)NC(=O)[C@H](CC(C)C)NC2=O)c1` [Compound 1683] ({CH2CO}-Y(Carboxymethyl)[Phe(4-COOH)]D[Phe(3-Me)]L[Bip]V[NMeA][dL]N[Cha]VTC-NH2; thioether N-14), 0.03 µM; under `Cc1cccc(C[C@@H]2NC(=O)[C@H](CC(=O)O)NC(=O)[C@H](Cc3ccc(O)cc3)NC(=O)[C@H](CN)NC(=O)CSC[C@@H](C(=O)N[C@@H](C)C(N)=O)NC(=O)[C@H]([C@@H](C)O)NC(=O)[C@H](C(C)C)NC(=O)[C@H](CC(C)C)NC(=O)[C@H](CCN)NC(=O)[C@@H](CC(C)C)NC(=O)[C@H](C)N(C)C(=O)[C@H](CCCNC(N)=O)NC(=O)[C@H](Cc3ccc(-c4ccccc4)cc3)NC(=O)[C@H](C(C)C)NC2=O)c1` [Compound 1422] ({CH2CO}-[Dap]YD[Phe(3-Me)]V[Bip][Cit][NMeA][dL][Dab]LVTCA-NH2; thioether N-14), 0.05 µM.
For the compound `Cc1cccc(C[C@@H]2NC(=O)[C@H](CC(=O)O)NC(=O)[C@H](Cc3ccc(OCC(=O)O)cc3)NC(=O)[C@H]([C@@H](C)O)NC(=O)CSC[C@@H](C(N)=O)NC(=O)[C@H](CCC(N)=O)NC(=O)[C@H](C(C)C)NC(=O)[C@H](CC3CCCCC3)NC(=O)[C@H](CCN)NC(=O)[C@@H](CC(C)C)NC(=O)[C@H](C)N(C)C(=O)[C@H](Cc3ccc(OCC(=O)O)cc3)NC(=O)[C@H](Cc3ccc(-c4ccccc4)cc3)NC(=O)[C@H](Cc3ccc(OCC(=O)O)cc3)NC2=O)c1` [Compound 1671] ({CH2CO}-TY(Carboxymethyl)D[Phe(3-Me)]Y(Carboxymethyl)[Bip]Y(Carboxymethyl)[NMeA][dL][Dab][Cha]VQC-NH2; thioether N-14), the IC50 is 0.09 µM.
The same measure, in the same setting: under `CCC(C)[C@@H]1NC(=O)[C@H](Cc2ccc(-c3ccccc3)cc2)NC(=O)[C@H](C(C)C)NC(=O)[C@H](Cc2c[nH]c3ccccc23)NC(=O)[C@H](CC(N)=O)NC(=O)[C@H](Cc2ccc(-c3cccc(C(=O)O)c3)cc2)NC(=O)[C@H](Cc2ccncc2)NC(=O)CSC[C@@H](C(=O)N[C@@H](C)C(=O)N[C@@H](CCCCN)C(N)=O)NC(=O)[C@H](C(C)O)NC(=O)[C@H](C(C)C)NC(=O)C(CC2CCCCC2)NC(=O)[C@H](CC(N)=O)NC(=O)[C@@H](CC(C)C)NC(=O)[C@H](C)N(C)C1=O` (stereo partly drawn) [Compound 2019] ({CH2CO}-[4Pal][Bip(3'-COOH)]NWV[Bip][Ile(3ξ)][NMeA][dL]N[ξCha]V[Thr(3ξ)]CAK-NH2; thioether N-14) stands 0.28 µM; under `CC[C@H](C)[C@@H]1NC(=O)[C@H](Cc2ccc(-c3ccccc3)cc2)NC(=O)[C@H](C(C)C)NC(=O)[C@H](Cc2c[nH]c3ccccc23)NC(=O)[C@H](CC(=O)O)NC(=O)[C@H](Cc2ccc(O)cc2)NC(=O)[C@H](Cc2ccncc2)NC(=O)CSC[C@@H](C(N)=O)NC(=O)[C@H]([C@@H](C)O)NC(=O)[C@H](C(C)C)NC(=O)[C@H](CC(C)C)NC(=O)[C@H](CCN)NC(=O)[C@@H](CC(C)C)NC(=O)[C@H](C)N(C)C1=O` [Compound 1632] ({CH2CO}-[4Pal]YDWV[Bip]I[NMeA][dL][Dab]LVTC-NH2; thioether N-14), 0.13 µM.
For the compound `CCC(C)[C@@H]1NC(=O)[C@H](Cc2ccc(-c3ccccc3)cc2)NC(=O)[C@H](CCC(=O)O)NC(=O)[C@H](Cc2c[nH]c3ccccc23)NC(=O)[C@H](CC(N)=O)NC(=O)[C@H](Cc2ccc(O)cc2)NC(=O)[C@H](Cc2ccncc2)NC(=O)CSC[C@@H](C(=O)N[C@@H](C)C(N)=O)NC(=O)[C@H](C(C)O)NC(=O)[C@H](CCN)NC(=O)[C@H](CC(C)C)NC(=O)[C@H](CC(N)=O)NC(=O)[C@@H](CC(C)C)NC(=O)[C@H](C)N(C)C1=O` (stereo partly drawn) [Compound 2059] ({CH2CO}-[4Pal]YNWE[Bip][Ile(3ξ)][NMeA][dL]NL[Dab][Thr(3ξ)]CA-NH2; thioether N-14), the half-inhibitory concentration (IC50) was 0.74 µM.
As to `CCCC[C@@H]1NC(=O)[C@H](Cc2ccc(-c3ccccc3)cc2)NC(=O)[C@H](C(C)C)NC(=O)[C@H](Cc2c[nH]c3ccccc23)NC(=O)[C@H](CC(=O)O)NC(=O)[C@H](Cc2ccc(O)cc2)NC(=O)[C@H](CC(N)=O)NC(=O)CSC[C@@H](C(=O)N[C@@H](C)C(N)=O)NC(=O)[C@H]([C@@H](C)O)NC(=O)[C@H](C(C)C)NC(=O)[C@H](CC(C)C)NC(=O)[C@H](CCN)NC(=O)[C@@H](CC(C)C)NC(=O)[C@H](C)N(C)C1=O` [Compound 1271] ({CH2CO}-NYDWV[Bip][Nle][NMeA][dL][Dab]LVTCA-NH2; thioether N-14), the IC50 stood at 0.03 µM.
In the case of `CC(C)C[C@@H]1NC(=O)[C@H](CCN)NC(=O)[C@@H](CC(C)C)NC(=O)[C@H](C)N(C)C(=O)[C@H](CCCNC(=N)N)NC(=O)[C@H](Cc2ccc(-c3ccccc3)cc2)NC(=O)[C@H](C(C)C)NC(=O)[C@H](Cc2c[nH]c3ccccc23)NC(=O)[C@H](CC(=O)O)NC(=O)[C@H](Cc2ccc(O)cc2)NC(=O)[C@H](Cc2ccccc2)NC(=O)CSC[C@@H](C(=O)N[C@@H](C)C(N)=O)NC(=O)[C@H]([C@@H](C)O)NC(=O)[C@H](C(C)C)NC1=O` [Compound 1052] ({CH2CO}-FYDWV[Bip]R[NMeA][dL][Dab]LVTCA-NH2; thioether N-14), the IC50 was found to be 0.04 µM.
With `CCC(C)[C@@H]1NC(=O)[C@H](Cc2ccc(-c3ccccc3)cc2)NC(=O)[C@H](C(C)C)NC(=O)[C@H](Cc2c[nH]c3ccccc23)NC(=O)[C@H](CC(=O)O)NC(=O)[C@H](Cc2ccc(O)cc2)NC(=O)[C@H](Cc2ccncc2)NC(=O)CSC[C@@H](C(=O)N[C@@H](C)C(N)=O)NC(=O)[C@H](C(C)O)NC(=O)[C@H](CCN)NC(=O)[C@H](CC(C)C)NC(=O)[C@H](CC(N)=O)NC(=O)[C@@H](CC(C)C)NC(=O)[C@H](C)N(C)C1=O` (stereo partly drawn) [Compound 2060] ({CH2CO}-[4Pal]YDWV[Bip][Ile(3ξ)][NMeA][dL]NL[Dab][Thr(3ξ)]CA-NH2; thioether N-14), the IC50 stood at 0.28 µM.
As to `CC(=O)NCSC[C@@H]1NC(=O)[C@H](Cc2cccc(C)c2)NC(=O)[C@H](CC(=O)O)NC(=O)[C@H](Cc2ccncc2)NC(=O)[C@H](Cc2ccc(OCC(=O)O)cc2)NC(=O)CSCC(C(=O)NCC(N)=O)NC(=O)[C@H](CO)NC(=O)[C@H](C(C)C)NC(=O)[C@H](CC(C)C)NC(=O)[C@H](CC(N)=O)NC(=O)[C@@H](CC(C)C)NC(=O)[C@H](C)N(C)C(=O)[C@H](CSCNC(C)=O)NC(=O)[C@H](Cc2ccc(-c3ccccc3)cc2)NC1=O` (stereo partly drawn) [Compound 1888] ({CH2CO}-Y(Carboxymethyl)[4Pal]D[Phe(3-Me)]C(Acm)[Bip]C(Acm)[NMeA][dL]NLVS[ξC]G-NH2; thioether N-14), the half-maximal inhibitory concentration (IC50) was 0.2 µM.

(Values after US20240409585A1, “MACROCYCLIC IMMUNOMODULATORS” (priority 2021, published 2024).)
